According to patent US10011571B2, “Preparation method for aromatic heterocyclic compound used as selective JAK3 and/or JAK1 kinase inhibitor and application of aromatic heterocyclic compound” (SHENZHEN CHIPSCREEN BIOSCIENCES, LTD., priority 2014, dated 2018):

Key:
[1] = target: JAK1 (Homo sapiens (Human), UniProt P23458); test: Eurofins IC50Profiler radiometric kinase assay, JAK1; type: biochemical; conditions: 9 semilog concentrations
Description: (§1) A proportion of the compounds of the present invention are subjected to kinase profile screening (KinaseProfiler™)) and enzymatic inhibitory activity (IC50Profiler™)) assay by entrusting Eurofins company (http://www.eurofins.com). Besides the kinases in the JAK family, the kinases that have been screened for their activity also include most Group 3F and Group 4 kinases (ITK, BLK, TBK1, VEGFRs, ERBBs, etc.), and blood system related kinases (Zhang J. et al. 2009, Nat. Rev. Cancer., 9: 28-39). The concentration of the test compound for kinase profile screening is 1 μM, and a gradient of 9 semilog concentration gradients are used to determine IC50. Detection is carried out according to standard procedure of Eurofins Company. Briefly, according to the requirements of different kinase reactions, 0.2 μL test compound (50 μM, dissolved in dimethyl sulfoxide (DMSO)) is added to reaction buffer containing specific kinase (the buffer system containing 20 mM MOPS, 1 mM EDTA, 0.01% Brij-35, 5% Glycerol, 0.1% β-mercaptoethanol, 1 mg/mL BSA, or 50 mM TRIS, 0.1 mM EGTA, 0.1 mM Na3VO4, 0.1% β-mercaptoethanol, 1 mg/mL BSA, based on the type of kinase used). Subsequently, a kinase specific substrate at a final concentration of 50 μM (specific substrate used for specific kinase), 10 mM Mg Acetate and isotope-labeled γ-^33P ATP (radio-activity of about 500 cpm/pmol) are sequentially added to a total volume of 10 μL for the reaction system. After incubation at room temperature for 40 min, the reaction is terminated by adding 3% phosphoric acid solution. The mixture is then transferred to a filter-type low temperature spray dryer (P30 filtermat), and washed by 75 mM phosphoric acid solution for 3 times and by methanol once. After drying, radio-activity is detected. For specific procedure, see the standard procedure provided by Eurofins Company: http://www.eurofins.com/media/9724077/kinaseprofiler_assay_protocol_guide_eurofins_v64.pdf).

[2] = target: JAK2 (Homo sapiens (Human), UniProt O60674); test: Eurofins IC50Profiler radiometric kinase assay, JAK2; type: biochemical; conditions: 9 semilog concentrations
JAK2, sequence (O60674 whole entry, species assumed): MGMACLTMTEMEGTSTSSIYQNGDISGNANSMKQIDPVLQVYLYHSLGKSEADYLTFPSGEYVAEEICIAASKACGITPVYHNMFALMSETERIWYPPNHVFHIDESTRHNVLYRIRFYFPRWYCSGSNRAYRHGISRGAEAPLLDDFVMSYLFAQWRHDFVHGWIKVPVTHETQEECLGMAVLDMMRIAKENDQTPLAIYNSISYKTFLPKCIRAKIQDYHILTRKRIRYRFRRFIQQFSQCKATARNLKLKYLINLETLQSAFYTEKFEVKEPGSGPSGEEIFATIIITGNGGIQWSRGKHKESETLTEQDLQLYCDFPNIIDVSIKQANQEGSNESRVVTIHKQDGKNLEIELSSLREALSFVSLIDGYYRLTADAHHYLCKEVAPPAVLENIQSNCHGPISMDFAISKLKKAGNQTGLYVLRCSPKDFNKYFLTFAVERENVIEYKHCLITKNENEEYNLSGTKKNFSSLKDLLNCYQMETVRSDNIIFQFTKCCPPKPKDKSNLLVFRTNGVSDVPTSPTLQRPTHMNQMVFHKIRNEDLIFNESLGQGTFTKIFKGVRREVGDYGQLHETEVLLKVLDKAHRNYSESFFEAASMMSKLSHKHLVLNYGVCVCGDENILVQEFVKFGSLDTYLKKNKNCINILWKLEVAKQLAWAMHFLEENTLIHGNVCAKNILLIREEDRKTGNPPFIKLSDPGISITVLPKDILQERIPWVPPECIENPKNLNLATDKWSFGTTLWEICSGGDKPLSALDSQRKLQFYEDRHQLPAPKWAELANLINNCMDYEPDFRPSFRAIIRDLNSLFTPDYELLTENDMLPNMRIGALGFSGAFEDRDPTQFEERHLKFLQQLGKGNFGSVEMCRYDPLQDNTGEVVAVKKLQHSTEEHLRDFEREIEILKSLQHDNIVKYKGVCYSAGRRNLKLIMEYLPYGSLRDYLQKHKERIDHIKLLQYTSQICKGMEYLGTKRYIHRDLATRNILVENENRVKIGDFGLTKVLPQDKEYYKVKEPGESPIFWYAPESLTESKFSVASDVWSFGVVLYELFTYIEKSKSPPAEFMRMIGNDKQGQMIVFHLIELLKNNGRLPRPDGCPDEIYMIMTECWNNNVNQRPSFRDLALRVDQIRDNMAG
Description: as §1

[3] = target: ITK (Homo sapiens (Human), UniProt Q08881); test: Eurofins IC50Profiler radiometric kinase assay, ITK; type: biochemical; conditions: 9 semilog concentrations
ITK, sequence (Q08881 whole entry, species assumed): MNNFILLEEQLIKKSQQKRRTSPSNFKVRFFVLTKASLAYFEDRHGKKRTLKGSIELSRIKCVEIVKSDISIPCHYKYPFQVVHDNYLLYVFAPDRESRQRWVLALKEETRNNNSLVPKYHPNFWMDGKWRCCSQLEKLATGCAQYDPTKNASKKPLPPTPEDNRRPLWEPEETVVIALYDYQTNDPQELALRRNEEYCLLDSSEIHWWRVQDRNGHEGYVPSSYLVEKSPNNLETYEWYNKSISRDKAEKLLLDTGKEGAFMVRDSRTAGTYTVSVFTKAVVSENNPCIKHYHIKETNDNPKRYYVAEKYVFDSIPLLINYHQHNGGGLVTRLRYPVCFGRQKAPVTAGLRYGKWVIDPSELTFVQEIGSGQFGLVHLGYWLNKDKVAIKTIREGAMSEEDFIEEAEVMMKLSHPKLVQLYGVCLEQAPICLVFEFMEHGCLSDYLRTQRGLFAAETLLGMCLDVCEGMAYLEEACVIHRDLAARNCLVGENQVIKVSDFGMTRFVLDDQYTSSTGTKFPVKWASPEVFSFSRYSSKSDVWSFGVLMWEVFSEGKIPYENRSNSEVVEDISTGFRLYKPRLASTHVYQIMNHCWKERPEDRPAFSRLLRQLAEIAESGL
Description: as §1

[4] = system: EPO/JAK2/STAT5a (UT-7); test: Intracellular activity assay, EPO induced STAT5 phosphorylation in UT-7/EPO; type: cell-based; conditions: Homo sapiens, inhibition of STAT5 phosphorylation, EPO 10 ng/mL
Description: In this experiment, western blot (WB) and flow cytometry are used to evaluate the intracellular activities of the test compounds by comparing the relative levels of the signals of phosphorylated and non-phosphorylated STATs in 5 cell models, including U937, THP-1, CTLL-2, UT-7/EPO and activated human periphery blood cell (hPBC). The primary antibody and secondary antibody used in WB hybridization in this experiment are purchased from Cell Signaling Company (http://www.cellsignal.com). The fluorescence-labeled antibodies used in flow cytometry are purchased from eBiosciences Company (http://www.ebioscience.com).
UT-7/EPO is a cell line formed from the marrow of a patient suffering from […] after cultured with EPO induction, and it has obvious response to cytokine EPO. The signal for EPO is transmitted via the homodimer of JAK2 and induces the phosphorylation of downstream STAT5, while a JAK inhibitor suppresses the phosphorylation of STAT5 by suppressing the activity of JAK2. The intracellular inhibitory activity of the compounds on JAK2 can be evaluated by detecting the change of the phosphorylation level of STAT5.
(1) Treatment by the compound: the experiment is carried out in a 6-well plate. […]
(2) Cell fixation and fluorescence labeling: the cells are fixed using paraformaldehyde (30 min), and subsequently treated for membrane permeability in chilled methanol (15 min). […]
(3) Detection by flow cytometry: the detection is carried out using Guava® easyCyte flow cytometer according to the instruction. The median fluorescent intensity (MFI) of a sample is detected using an appropriate cell population. On such a basis, the relative signal intensities are calculated for the phosphorylated STATs treated by the compounds at different concentrations by reference to the signal of the negative (with no factor stimulation) and the positive control (with both factor stimulation and solvent control) in the experiment, so that the IC50 of the compound for the inhibitory activity on STATs phosphorylation can be evaluated.

JAK1, sequence (P23458 whole entry, species assumed): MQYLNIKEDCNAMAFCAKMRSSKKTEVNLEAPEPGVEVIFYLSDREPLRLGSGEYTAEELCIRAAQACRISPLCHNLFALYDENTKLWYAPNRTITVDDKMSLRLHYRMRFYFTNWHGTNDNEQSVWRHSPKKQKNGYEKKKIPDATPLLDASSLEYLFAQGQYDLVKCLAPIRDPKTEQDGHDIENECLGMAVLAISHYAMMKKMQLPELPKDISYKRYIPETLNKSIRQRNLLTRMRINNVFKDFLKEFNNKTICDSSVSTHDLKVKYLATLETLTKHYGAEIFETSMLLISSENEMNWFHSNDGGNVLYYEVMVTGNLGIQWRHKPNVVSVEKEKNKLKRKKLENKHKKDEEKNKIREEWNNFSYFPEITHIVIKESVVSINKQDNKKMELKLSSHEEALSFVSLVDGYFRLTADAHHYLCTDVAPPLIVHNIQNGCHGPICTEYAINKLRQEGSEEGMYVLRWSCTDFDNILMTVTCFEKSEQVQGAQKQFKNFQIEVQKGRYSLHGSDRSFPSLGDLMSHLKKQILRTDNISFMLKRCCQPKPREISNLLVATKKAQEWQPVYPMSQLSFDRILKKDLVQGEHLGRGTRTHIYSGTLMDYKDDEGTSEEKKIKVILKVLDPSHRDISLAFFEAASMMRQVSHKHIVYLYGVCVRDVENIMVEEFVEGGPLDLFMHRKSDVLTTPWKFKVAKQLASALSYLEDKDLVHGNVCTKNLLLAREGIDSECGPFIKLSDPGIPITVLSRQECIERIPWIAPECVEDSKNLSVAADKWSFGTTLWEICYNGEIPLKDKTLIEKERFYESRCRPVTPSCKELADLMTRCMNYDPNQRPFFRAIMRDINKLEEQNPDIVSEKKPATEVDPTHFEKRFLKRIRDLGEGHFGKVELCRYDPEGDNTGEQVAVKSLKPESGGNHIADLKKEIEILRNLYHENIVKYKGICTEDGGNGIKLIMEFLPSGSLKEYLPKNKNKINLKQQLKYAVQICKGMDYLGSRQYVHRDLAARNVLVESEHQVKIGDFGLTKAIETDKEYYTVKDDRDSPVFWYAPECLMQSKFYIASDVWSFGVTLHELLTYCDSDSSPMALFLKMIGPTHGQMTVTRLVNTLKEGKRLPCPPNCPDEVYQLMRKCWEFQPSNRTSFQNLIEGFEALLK

Row | SMILES | IC50 [1] [µM] | IC50 [2] [µM] | IC50 [3] [µM] | IC50 [4] [µM]
1 | C=CC(=O)N(C)c1cc(Nc2ncc(Cl)c(NCCCNC(=O)c3ccc(C#N)cc3)n2)ccc1F [Example 7, N-(3-(5-chloro-2-(4-fluoro-3-(N-methylacrylamido)phenylamino)pyrimidinyl-4-amino)propyl)-4-cyano-benzamide] | 0.105 | 1.4 | 0.319 | > 3
2 | C=CC(=O)N(C)c1cc(Nc2ncc(Cl)c(NCCCNC(=O)c3ccc(C(F)(F)F)cc3)n2)ccc1F [Example 22, N-(3-(5-chloro-2-(4-fluoro-3-(N-methylacrylamido)phenylamino)pyrimidinyl-4-amino)propyl)-4-trifluoromethylbenzamide] | 0.279 | > 10 | > 10 | > 3
3 | C=CC(=O)N(C)c1cc(Nc2ncc(Cl)c(NCCCNC(=O)c3ccc(F)cc3)n2)ccc1F [Example 23, N-(3-(5-chloro-2-(4-fluoro-3-(N-methylacrylamido)phenylamino)pyrimidinyl-4-amino)propyl)-4-fluorobenzamide] | 0.173 | 1.92 | > 10 | > 3
